Data: patent US20230234936A1, “COMPOUND FOR TARGETING AND DEGRADING PROTEIN, AND PREPARATION METHOD THEREFOR AND USE THEREOF” (SHANGHAI LEADINGTAC PHARMACEUTICAL CO., LTD., priority 2020, published 2023)

Tests used:
[1] = target: T1, IRAK4 protein in THP-1 cells (Homo sapiens, UniProt Q9NWZ3); test: Degradation of IRAK4 in THP-1 cells (Western blot); type: cell-based; settings: 24 hours, compound 1-3000 nM
T1 construct: endogenous in cells; host or cells: THP-1
T1 sequence (Q9NWZ3 1-460): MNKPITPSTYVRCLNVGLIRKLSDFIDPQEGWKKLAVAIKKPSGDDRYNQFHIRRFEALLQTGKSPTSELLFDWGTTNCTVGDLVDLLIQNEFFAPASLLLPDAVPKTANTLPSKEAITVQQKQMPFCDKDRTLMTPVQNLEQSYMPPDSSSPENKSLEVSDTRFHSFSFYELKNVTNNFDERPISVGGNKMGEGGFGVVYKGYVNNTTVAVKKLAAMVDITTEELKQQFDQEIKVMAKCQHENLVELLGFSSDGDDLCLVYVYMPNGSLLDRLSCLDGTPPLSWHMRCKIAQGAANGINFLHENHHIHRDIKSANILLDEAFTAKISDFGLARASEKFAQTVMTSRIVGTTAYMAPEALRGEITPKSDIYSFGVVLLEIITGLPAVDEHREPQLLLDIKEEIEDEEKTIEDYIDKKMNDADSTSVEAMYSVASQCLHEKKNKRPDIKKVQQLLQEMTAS
Method: Each well of the 24-well cell culture plate was inoculated with 0.95 mL THP-1 cells (stem cell bank of Chinese academy of sciences) with a cell density of 5×10^5 cells/well. The cell plate was placed in a 5% carbon dioxide incubator and cultured overnight at 37° C., then 50 μL compound in dimethyl sulfoxide was added. The final concentration of the compound was in the range of 1-3000 nM. After continuous cultivation for 24 hours, the cells were collected into a 1.5 mL centrifuge tube, centrifuged at 1000 rpm and 4° C. for 5 minutes. Cell precipitation was cleaned twice with 1-DPBS, resuspended cells were lysed with 200 μL lysate (cell lysate was Western and IP cell lysate (Beyotime), supplemented with 1 mM mixture of phenylmethylsulfonyl fluoride and protease inhibitor (Beyotime)), left on ice for 30 minutes, then centrifuged at 14000 g at 4° C. for 10 minutes, and the supernatant was taken to detect IRAK4 protein level by Western blot.
Western blot method: The total protein concentration in the supernatant of cell lysis was determined by BCA protein quantitative kit (Tiangen). According to the concentration of total protein detected by BCA, the supernatant was adjusted to 0.2 μg/μL with PBS and 5× SDS-PAGE protein loading buffer (Beyotime), bathed in water at 100° C. for 10 minutes, then placed in ice bath for 5 minutes, centrifuged at 14000 g and 4° C. for 5 minutes, and then collected as WB loading sample. Prefabricated glue (KeyGEN) was used for protein electrophoresis with a loading amount of 10 μL (total protein 2 μg). After Tris-MOPS-SDS electrophoresis solution (Adamas), 120V constant pressure electrophoresis was performed. After electrophoresis, the protein on the adhesive strip was transferred to PVDF membrane with a constant current of […] for 50 minutes. After the membrane was transferred, the membrane was placed in 1×QuickBlock blocking buffer (Beyotime) and incubated for 30 minutes at room temperature. After blocking, PVDF membranes were incubated with IRAK4 primary antibody (Abcam) overnight at 4°, the membranes were washed with TBST buffer (2.4 g Tris, 8.8 g NaCl, 1.5 mL Tween 20, pH adjusted to 7.4, constant volume to 1 L) for 30 minutes, incubated with secondary antibody (Abcam) for 2 hours at room temperature, finally incubated with Clarity Western ECL Substrate(BIO-RAD) for 5 minutes for luminescence development, chemiluminescence imaging system (Clinx, chemiScope 6200 Touch) for development and protein mapping photography. The protein map was analyzed by Clinx chemiluminescence analysis software for grayscale values. Using the formula: grayscale correction value=(target protein grayscale value/corresponding internal reference grayscale value)×10^3, the grayscale correction value of each sample was calculated. The degradation rate was calculated by comparing with the grayscale correction value of the control group. Furthermore, DC50 and Dmax values of the compound were obtained by the nonlinear curve fitting with the logarithmic concentration-inhibition rate by GraphPad Prism 7.

IRAK4 kinase = target: T2, IRAK4 kinase (Homo sapiens, UniProt Q9NWZ3); test: IRAK4 kinase activity test (KinEASE-STK S1 HTRF kit); type: biochemical; settings: 2.5 nM kinase, 1 μM biotinylated polypeptide substrate, 7 μM ATP, 37° C. 120 min
T2 sequence (Q9NWZ3 1-460): T1 sequence (Q9NWZ3 1-460)
Method: KinEASE-STK S1 serine/threonine kinase kit (Cisbio) was used to detect the inhibitory effect of the compound on IRAK4 kinase activity. The specific method was: the compound was dissolved in dimethyl sulfoxide, and then it was diluted with the buffer solution of the kit by equal gradient to make the final concentration range of the tested compound in the reaction system 10000 nM-0.038 nM, then 2.5 nM kinase, 1 μM biotinylated polypeptide substrate and 7 μM adenosine triphosphate (ATP) were added in sequence and incubated at 37° C. for 120 min. Subsequently, anti-phosphorylated serine/threonine antibody coupled with europium element compound and modified XL665 streptavidin were added to the reaction system to terminate the reaction. After incubating at room temperature for 1 h, the fluorescence intensity of each well at the emission wavelength of 620 nm and 665 nm and the excitation wavelength of 337 nm was determined in HTRF mode on the microplate reader EnVision(PerkinElmer), the ratio value was calculated using the formula Ratio=(665 nm/620 nm)×10^4. By comparing with the fluorescence intensity ratio of the control group, the inhibition rate of the compound at each concentration was calculated, and then the IC50 value of the compound was obtained by fitting the nonlinear curve with the logarithmic concentration-inhibition rate by GraphPad Prism 7.

SMILES | DC50 [1] [nM] | IC50 (IRAK4 kinase) [nM]
COc1cc2nn(C3CCN(CCOCCOc4ccc5c(c4)C(=O)N(C4CCC(=O)NC4=O)C5=O)CC3)cc2cc1NC(=O)c1cccc(C(F)(F)F)n1 (centres unmarked) [Control group 1, N-(2-(1-(2-(2-((2-(2,6-dioxopiperidin-3-yl)-1,3-dioxoisoindol-5-yl)oxy)ethoxy)ethyl)piperidin-4-yl)-6-methoxy-2H-indazol-5-yl)-6-(trifluoromethyl) pyridinecarboxamide, reference compound] | 38.1 | 44.2
COc1cc2nn(C3CCN(CCCCCNC(=O)c4ccc(OC)c(N5CCC(=O)NC5=O)c4)CC3)cc2cc1NC(=O)c1cccc(C(F)(F)F)n1 [Example 4, N-(2-(1-(5-(3-(2,4-dioxotetrahydropyrimidin-1 (2H)-yl)-4-methoxybenzamido)pentyl)piperidin-4-yl)-6-methoxy-2H-indazol-5-yl)-6-(trifluoromethyl) pyridinecarboxamide] | – | 12.2
COc1cc2nn(C3CCN(CCOCCNC(=O)c4ccc(OC)c(N5CCC(=O)NC5=O)c4)CC3)cc2cc1NC(=O)c1cccc(C(F)(F)F)n1 [Example 5, N-(2-(1-(2-(2-(3-(2,4-dioxotetrahydropyrim-idin-1 (2H)-yl)-4-methoxybenz-amido)ethoxy)ethyl)piperidin-4-yl)-6-me-thoxy-2H-indazol-5-yl)-6-(trifluoromethyl) pyridinecarboxamide] | – | 9.1
COc1cc2nn(C3CCN(CCOCCOCCNC(=O)c4ccc(OC)c(N5CCC(=O)NC5=O)c4)CC3)cc2cc1NC(=O)c1cccc(C(F)(F)F)n1 [Example 8, N-(2-(1-(2-(2-(2-(3-(2,4-dioxotetrahydropyrimidin-1 (2H)-yl)-4-methoxybenz-amido)ethoxy)ethoxy)ethyl)piperidin-4-yl)-6-methoxy-2H-indazol-5-yl)-6-(trifluoro-methyl) pyridin-carboxamide] | – | 10.5
CCOc1ccc(C(=O)N2CCC3(CCC(CCN4CCC(n5cc6cc(NC(=O)c7cccc(C(F)(F)F)n7)c(C(C)(C)O)cc6n5)CC4)CC3)CC2)cc1N1CCC(=O)NC1=O [Example 24] | – | 34.6
CC(C)(O)c1cc2nn(C3CCN(CCCC4CCN(C(=O)c5ccc(Cl)c(N6CCC(=O)NC6=O)c5)CC4)CC3)cc2cc1NC(=O)c1cccc(C(F)(F)F)n1 [Example 29] | – | 8.6
CC(C)(O)c1cc2nn(C3CCN(CCC4CCC5(CC4)CCN(C(=O)c4ccc(OC(F)(F)F)c(N6CCC(=O)NC6=O)c4)CC5)CC3)cc2cc1NC(=O)c1cccc(C(F)(F)F)n1 [Example 37] | – | 30.5
CC(C)(O)c1cc2nn(C3CCN(CCC4CCC5(CC4)CCN(C(=O)c4ccc(C(F)(F)F)c(N6CCC(=O)NC6=O)c4)CC5)CC3)cc2cc1NC(=O)c1cccc(C(F)(F)F)n1 [Example 38, N-(2-(1-(2-(3-(3-(2,4-dioxotetrahydro-pyrimidin-1 (2H)-yl)-4-(trifluoro-methyl)benzoyl)-3-azaspiro[5.5]undec-9-yl)ethyl)piperidin-4-yl)-6-(2-hydroxyprop-2-yl)-2H-indazol-5-yl)-6-(trifluoro-methyl) pyridinecarbox-amide] | – | 34.5
COc1cc2nn([C@H]3CC[C@H](CN(C)CCC4CCN(C(=O)c5ccc(F)c(C6CCC(=O)NC6=O)c5)CC4)CC3)cc2cc1NC(=O)c1cccc(C(F)(F)F)n1 (some centres unmarked) [Example 52] | – | 9.2
COc1cc2nn([C@H]3CC[C@@H](N4CCC5(CCN(C(=O)c6ccc(Cl)c(N7CCC(=O)NC7=O)c6)CC5)CC4)CC3)cc2cc1NC(=O)c1cccc(C(F)(F)F)n1 [Example 59, N-(2-((1s,4s)-4-(9-(4-chloro-3-(2,4-dioxotetrahydro-pyrimidin-1 (2H)-yl)benzoyl)-3,9-diazaspiro[5.5]undec-3-yl)cyclohexyl)-6-methoxy-2H-inda-zol-5-yl)-6-(trifluoro-methyl) pyridinecarbox-amide] | – | 11
O=C1CCN(c2cc(C(=O)N3CCC4(CCC(CN5CCC(n6cc7cc(NC(=O)c8cccc(C(F)(F)F)n8)c(OC(F)(F)F)cc7n6)CC5)CC4)CC3)ccc2Cl)C(=O)N1 [Example 61, N-(2-(1-((3-(4-chloro-3-(2,4-dioxotetrahydro-pyrimidin-1 (2H)-yl)benzoyl)-3-azaspiro [5.5]undec-9-yl)methyl)piperidin-4-yl)-6-(trifluoromethoxy)-2H-indazol-5-yl)-6-(trifluoro-methyl) pyridinecarbox-amide] | – | 128

Molecules with a lower IC50 (IRAK4 kinase), results first:

DC50 [1] [nM] | IC50 (IRAK4 kinase) [nM] | SMILES
– | 7.9 | COc1ccc(C(=O)N2CC3(CCN(CCN4CCC(n5cc6cc(NC(=O)c7cccc(C(F)(F)F)n7)c(C(C)(C)O)cc6n5)CC4)CC3)C2)cc1N1CCC(=O)NC1=O [Example 13, N-(2-(1-(2-(2-(3-(2,4-dioxotetrahydropyrimidin-1 (2H)-yl)-4-methoxybenzoyl)-2,7-diazaspiro [3.5]non-7-yl)ethyl)piperidin-4-yl)-6-(2-hydroxyprop-2-yl)-2H-indazol-5-yl)-6-(trifluoro-methyl) pyridinecarboxamide]
– | 6.9 | COc1cc2nn(C3CCN(CCN4CCN(C(=O)c5ccc(OC)c(N6CCC(=O)NC6=O)c5)CC4)CC3)cc2cc1NC(=O)c1cccc(C(F)(F)F)n1 [Example 14, N-(2-(1-(2-(4-(3-(2,4-dioxotetrahydropyrimidin-1 (2H)-yl)-4-methoxybenzoyl)piperazin-1-yl)ethyl)piperidin-4-yl)-6-methoxy-2H-indazol-5-yl)-6-(trifluoromethyl) pyridinecarboxamide]
– | 6 | COc1cc2nn(C3CCN(CCN4CC5(CCN(C(=O)c6ccc(OC)c(N7CCC(=O)NC7=O)c6)CC5)C4)CC3)cc2cc1NC(=O)c1cccc(C(F)(F)F)n1 [Example 15, N-(2-(1-(2-(7-(3-(2,4-dioxo-tetrahydropyrim-idin-1 (2H)-yl)-4-methoxy-benzoyl)-2,7-diazaspiro [3.5]non-2-yl)ethyl)piperidin-4-yl)-6-methoxy-2H-in-dazol-5-yl)-6-(tri-fluoromethyl) pyridinecarbox-amide]
– | 3.8 | COc1cc2nn(C3CCC4(CC3)CCN(CC3CCN(C(=O)c5ccc(Cl)c(N6CCC(=O)NC6=O)c5)CC3)CC4)cc2cc1NC(=O)c1cccc(C(F)(F)F)n1 [Example 57, N-(2-(3-((1-(4-chloro-3-(2,4-dioxotetrahydro-pyrimidin-1 (2H)-yl)benzoyl)piperidin-4-yl)methyl)-3-azaspiro [5.5]undec-9-yl)-6-methoxy-2H-inda-zol-5-yl)-6-(triflu-oromethyl) pyridinecarbox-amide]
– | 4.4 | CN(C[C@H]1CC[C@H](n2cc3cc(NC(=O)c4cccc(C(F)(F)F)n4)c(C(C)(C)O)cc3n2)CC1)C1CCC2(CC1)CCN(C(=O)c1ccc(Cl)c(N3CCC(=O)NC3=O)c1)CC2 [Example 63]
